Laboratory results from BindingDB's records for patent US10544130 (Merck Sharp & Dohme Corp., 2020).

What was measured:
[1] = target: Metallo-beta-lactamase VIM-1 (Pseudomonas aeruginosa, UniProt A0A0F7KYQ8)
[2] = target: Metallo-beta-lactamase type 2 (Klebsiella pneumoniae, UniProt C7C422)
Sequence of Metallo-beta-lactamase type 2 (C7C422 whole entry): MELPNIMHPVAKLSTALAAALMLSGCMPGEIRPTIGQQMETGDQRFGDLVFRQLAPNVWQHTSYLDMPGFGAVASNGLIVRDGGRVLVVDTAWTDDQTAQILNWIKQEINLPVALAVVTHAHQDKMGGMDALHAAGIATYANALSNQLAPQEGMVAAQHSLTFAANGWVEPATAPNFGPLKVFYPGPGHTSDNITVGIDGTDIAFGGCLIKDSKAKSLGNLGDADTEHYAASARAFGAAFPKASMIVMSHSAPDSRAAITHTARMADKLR

SMILES | IC50 [1] | IC50 [2]
N#Cc1cccc(B(O)O)c1N [US10544130, Example 11] | 50 pM | 19 pM
COc1ccc(CN(Cc2ccc(OC)cc2)S(=O)(=O)c2c(S(=O)(=O)N[C@@H]3CCN(C(=O)OC(C)(C)C)C3)ccc(I)c2-c2nnn(Cc3ccc(OC)cc3)n2)cc1 [US10544130, Example 72] |  | 20 pM
COc1ccc(CN(Cc2ccc(OC)cc2)S(=O)(=O)c2c(S(=O)(=O)N[C@H]3CN(C(=O)OC(C)(C)C)C[C@@H]3NC(=O)OC(C)(C)C)ccc(I)c2-c2nnn(Cc3ccc(OC)cc3)n2)cc1 [US10544130, Example 82] |  | 49 pM
Nc1ncccc1-c1ccc(S(=O)(=O)N[C@H]2C[C@@H]2N)c(S(N)(=O)=O)c1-c1nn[nH]n1 [US10544130, Example 216] | 269 pM | 237 pM
C[N+]1(CCN)CC[C@@H](NS(=O)(=O)c2ccc(-c3cccc4[nH]c(N)nc34)c(-c3nn[nH]n3)c2S(N)(=O)=O)C1 (stereo not given in full) [US10544130, Example 248] |  | 11 pM

More lines, main results first:

IC50 [1] | SMILES | IC50 [2]
102 pM | OB(O)c1cccc2[nH]cnc12 [US10544130, Example 12] | 
158 pM | COc1ccc(CN(Cc2ccc(OC)cc2)S(=O)(=O)c2c(S(=O)(=O)NC[C@H](CO)NC(=O)OCc3ccccc3)ccc(I)c2-c2nnn(Cc3ccc(OC)cc3)n2)cc1 [US10544130, Example 80] | 
135 pM | COc1ccc(CN(Cc2ccc(OC)cc2)S(=O)(=O)c2c(S(=O)(=O)NC[C@@H](CNC(=O)OC(C)(C)C)NC(=O)OC(C)(C)C)ccc(I)c2-c2nnn(Cc3ccc(OC)cc3)n2)cc1 [US10544130, Example 81] | 
